The target of one assay is T1, Bcr-Abl^wt (Homo sapiens, UniProt P00519).
T1 construct: purchased Millipore
T1 sequence (P00519 242-493 limits assumed): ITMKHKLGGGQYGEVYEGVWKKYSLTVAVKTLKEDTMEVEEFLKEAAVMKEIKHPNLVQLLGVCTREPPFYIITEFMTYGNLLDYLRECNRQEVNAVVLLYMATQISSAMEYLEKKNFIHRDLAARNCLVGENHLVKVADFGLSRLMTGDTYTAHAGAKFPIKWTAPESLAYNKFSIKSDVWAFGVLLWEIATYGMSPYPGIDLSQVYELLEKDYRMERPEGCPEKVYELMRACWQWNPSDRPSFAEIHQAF
Nature of the assay: Kinase activation assay (IC50), fluorescence polarization tyrosine kinase assay kit. It is filed as biochemical. The following applies: kinase domain (Millipore), Poly (Glu, Tyr) 4:1 substrate, FP readout. As to the method:
(§1) Test 1: Kinase Activation Assay (IC50)
(§2) A kinase domain (Millipore) comprising the entire cytoplasmic sequences of Bcr-Abl^wt and Bcr-Abl^T315I mutation kinases and a tyrosine kinase assay kit (Panvera, P2837) were used to measure an inhibitory activation on Bcr-abl. Other kinases such as FGFR, Flt, KDR, PDGFR, Fms, Kit, Raf, Tie2, Src, and Ret were also measured by the same method. In order to prepare a sample, the each compound obtained in Examples 1 to 128 was diluted 10 times with a kinase buffer to a concentration of 10˜0.0001 μM.
(§3) The each kinase was diluted with a kinase buffer to a concentration of 30˜300 ng/assay by using the each Kd value. The kinase buffer consisted of 100 mM HEPES (PH 7.4), 25 mM MgCl2, 10 mM MnCl2, and 250 μM Na3VO4, being kept refrigerated after filtered.
(§4) The test was conducted in 96 well polystyrene round bottom plates. First, 10 μL of the diluted sample was combined with 10 μL of the enzyme solution at room temperature for 10 minutes using a shaker. 10 μL of Poly (Glu, Tyr) 4:1 (Sigma) matrix solution in an appropriate concentration and 10 μL of ATP solution (5˜300 μM) were added to the sample and subjected to a reaction at room temperature for 60 minutes in a shaker. After 60 minutes, an EDTA solution was added thereto to complete the kinase reaction and the reaction mixture was left in a shaker for 5 minutes at room temperature. A tracer, an antibody, and a fluorescence polarization (FP) diluted reaction solution were mixed at a ratio of 1:1:3 to prepare a detecting solution, 50 μL of which was added to the each sample and subjected to a reaction at room temperature for 30 minutes in a shaker. As fluorescing, light was blocked out and the FP value was measured using a FP instrument (excitation wavelength: 485 nm, and emission wavelength: 530 nm).
(§5) And the inhibition on kinase reaction was calculated for the sample in the range of 0˜100% as compared to the control group, and the concentration on x-axis at 50% inhibition was obtained as an inhibitory concentration (IC50) value.
(§6) 50% inhibitory concentration (IC50) Y=bottom+(top−bottom)/(1+10exp(X−log IC50)
Background: Fluorescence polarisation rises when a labelled molecule tumbles more slowly, as on binding a larger partner.

For the next assay, the target named is T2, Bcr-Abl^T315I (Homo sapiens, UniProt P00519, T315I).
T2 construct: purchased Millipore
T2 sequence (P00519 242-493 T315I limits assumed): T1 sequence (P00519 242-493 limits assumed) with T74I
The description is as above. It counts as biochemical. The following applies: T315I mutation kinase domain (Millipore), Poly (Glu, Tyr) 4:1 substrate, FP readout. As to the method:
as §1, §2, §3, §4, §5, §6

Drawing on patent US8999973B2, “Thieno[3,2-d]pyrimidine derivatives having inhibitory activity on protein kinases” (Hanmi Science Co., Ltd, priority 2010, dated 2015), this text covers IC50 for 20 molecules.

Changes are numbered by the printed parent chain.

Consider `Cc1cn(-c2cc(NC(=O)c3ccc(C)c(NC(=O)c4csc5c(NC6CC6)ncnc45)c3)cc(C(F)(F)F)c2)c(C)n1` [Example 31, 4-(cyclopropylamino)-N-(5-(3-(2,4-dimethyl-1H-imidazole-1-yl)-5-(trifluoromethyl)phenylcarbamoyl)-2-methylphenyl)thieno[3,2-d]pyrimidine-7-carboxamide], for which the IC50 on Bcr-Abl^wt and at Bcr-Abl^T315I was 1 to 100 nM each time.
Turning to `COc1ccc(C(=O)Nc2cc(-n3cnc(C)c3)cc(C(F)(F)F)c2)cc1NC(=O)c1csc2c(NC3CC3)ncnc12` [Example 36, 4-(cyclopropylamino)-N-(2-methoxy-5-(3-(4-methyl-1H-imidazole-1-yl)-5-(trifluoromethyl)phenylcarbamoyl)phenyl)thieno[3,2-d]pyrimidine-7-carboxamide], the IC50 (as a rule, the concentration needed to halve the response being measured) is 1 to 100 nM at Bcr-Abl^wt and 1000 to 10000 nM on Bcr-Abl^T315I.
The matching figures for `Cc1ccc(NC(=O)c2cccc(C(F)(F)F)c2)cc1NC(=O)c1csc2c(N)ncnc12` [Example 39, 4-amino-N-(2-methyl-5-(3-(trifluoromethyl)benzamido)phenyl)thieno[3,2-d]pyrimidine-7-carboxamide]: 1 to 100 nM and 1 to 100 nM.
For `Cc1ccc(NC(=O)c2cc(NCCCN(C)C)cc(C(F)(F)F)c2)cc1NC(=O)c1csc2c(NC3CC3)ncnc12` [Example 41, 4-(cyclopropylamino)-N-(5-(3-(3-(dimethylamino)propylamino)-5-(trifluoromethyl)benzamido)-2-methylphenyl)thieno[3,2-d]pyrimidine-7-carboxamide], in that order: 1 to 100 nM and 1 to 100 nM.
The matching figures for `COc1cc(OC)cc(C(=O)Nc2ccc(C)c(NC(=O)c3csc4c(N)ncnc34)c2)c1` [Example 43, 4-amino-N-(5-(3,5-dimethoxybenzamido)-2-methylphenyl)thieno[3,2-d]pyrimidine-7-carboxamide]: 1 to 100 nM and 100 to 1000 nM.
As to `Cc1ccc(NC(=O)c2cc(-n3cccc3)cc(C(F)(F)F)c2)cc1NC(=O)c1csc2c(N)ncnc12` [Example 45, N-(5-(3-(1H-pyrrol-1-yl)-5-(trifluoromethyl)benzamido)-2-methylphenyl)-4-aminothieno[3,2-d]pyrimidine-7-carboxamide], the IC50 at Bcr-Abl^wt and at Bcr-Abl^T315I was 1 to 100 nM in each case.
With `CCN1CCN(Cc2ccc(C(=O)Nc3ccc(C)c(NC(=O)c4csc5c(N)ncnc45)c3)cc2C(F)(F)F)CC1` [Example 49, 4-amino-N-(5-(4-((4-ethylpiperazine-1-yl)methyl)-3-(trifluoromethyl)benzamido)-2-methylphenyl)thieno[3,2-d]pyrimidine-7-carboxamide], the IC50 against Bcr-Abl^wt and against Bcr-Abl^T315I was 1 to 100 nM in each case.
Regarding `COc1cc(C(=O)Nc2ccc(C)c(NC(=O)c3csc4c(N)ncnc34)c2)nc2ccccc12` [Example 56, 4-amino-N-(5-(4-methoxyquinoline-2-carboxyamido)-2-methylphenyl)thieno[3,2-d]pyrimidine-7-carboxamide], the figures for the IC50 on Bcr-Abl^wt and against Bcr-Abl^T315I were 100 to 1000 nM and 1000 to 10000 nM, respectively.
The matching figures for `Cc1ccc(NC(=O)c2cc(-n3ccnc3C)cc(C(F)(F)F)c2)cc1NC(=O)c1csc2c(N)ncnc12` [Example 61, 4-amino-N-(2-methyl-5-(3-(2-methyl-1H-imidazole-1-yl)-5-(trifluoromethyl)benzamido)phenyl)thieno[3,2-d]pyrimidine-7-carboxamide]: 1 to 100 nM and 1 to 100 nM.
For `COc1cccc(C(=O)Nc2ccc(C)c(NC(=O)c3csc4c(N)ncnc34)c2)c1` [Example 65, 4-amino-N-(5-(3-methoxybenzamido)-2-methylphenyl)thieno[3,2-d]pyrimidine-7-carboxamide], the results for the IC50 on Bcr-Abl^wt and against Bcr-Abl^T315I were 1 to 100 nM and 1000 to 10000 nM, respectively.
The matching figures for `Cc1ccc(NC(=O)c2ccc(C(F)(F)F)cc2)cc1NC(=O)c1csc2c(N)ncnc12` [Example 66, 4-amino-N-(2-methyl-5-(4-(trifluoromethyl)benzamido)phenyl)thieno[3,2-d]pyrimidine-7-carboxamide]: 100 to 1000 nM and 1000 to 10000 nM.
The matching figures for `Cc1ccc(NC(=O)c2cc(C3CC3)on2)cc1NC(=O)c1csc2c(N)ncnc12` [Example 67, N-(3-(4-aminothieno[3,2-d]pyrimidine-7-carboxyamido)-4-methylphenyl)-5-cyclopropylisoxazol-3-carboxamide]: 1 to 100 nM and 1000 to 10000 nM.
Consider `Cc1cc(C(=O)Nc2ccc(C)c(NC(=O)c3csc4c(N)ncnc34)c2)n(Cc2ccc(F)cc2)n1` [Example 68, 4-amino-N-(5-(1-(4-fluorobenzyl)-3-methyl-1H-pyrazole-5-carboxyamido)-2-methylphenyl)thieno[3,2-d]pyrimidine-7-carboxamide], for which the IC50 against Bcr-Abl^wt and against Bcr-Abl^T315I was 1000 to 10000 nM throughout.
In the case of `Cc1ccc(NC(=O)c2cccc(C(F)(F)F)c2)cc1NC(=O)c1csc2c(NC3CCCC3)ncnc12` [Example 71, 4-(cyclopentylamino)-N-(2-methyl-5-(3-(trifluoromethyl)benzamido)phenyl)thieno[3,2-d]pyrimidine-7-carboxamide], the IC50 against Bcr-Abl^wt was 1 to 100 nM; against Bcr-Abl^T315I it was 1000 to 10000 nM.
The matching figures for `Cc1ccc(NC(=O)c2ccc(CN3CC[C@H](N(C)C)C3)c(C(F)(F)F)c2)cc1NC(=O)c1csc2c(NC3CC3)ncnc12` [Example 76, (S)-4-(cyclopropylamino)-N-(5-(4-((3-(dimethylamino)pyrrolidin-1-yl)methyl)-3-(trifluoromethyl)benzoamido)-2-methylphenyl)thieno[3,2-d]pyrimidine-7-carboxamide]: 1 to 100 nM and 1 to 100 nM.
The matching figures for `CNc1ncnc2c(C(=O)Nc3cc(NC(=O)c4cc(-n5cnc(C)c5)cc(C(F)(F)F)c4)ccc3C)csc12` [Example 78, N-(2-methyl-5-(3-(4-methyl-1H-imidazole-1-yl)-5-(trifluoromethyl)benzoamido)phenyl)-4-(methylamino)thieno[3,2-d]pyrimidine-7-carboxamide]: 1 to 100 nM and 100 to 1000 nM.
For `Cc1ccc(NC(=O)c2cc(-n3ccnc3C)cc(C(F)(F)F)c2)cc1NC(=O)c1csc2c(NC3CC3)ncnc12` [Example 83, 4-(cyclopropylamino)-N-(2-methyl-5-(3-(2-methyl-1H-imidazole-1-yl)-5-(trifluoromethyl)benzoamido)phenyl)thieno[3,2-d]pyrimidine-7-carboxamide], in that order: 1 to 100 nM and 1 to 100 nM.
Consider `Cc1ccc(NC(=O)c2cc(N3CCOCC3)cc(C(F)(F)F)c2)cc1NC(=O)c1csc2c(NC3CC3)ncnc12` [Example 86], for which the IC50 fell in the range of 1 to 100 nM against Bcr-Abl^wt and 100 to 1000 nM against Bcr-Abl^T315I.
On to `Cc1ccc(NC(=O)c2ccc(CN3CCCN(C)CC3)c(C(F)(F)F)c2)cc1NC(=O)c1csc2c(NC3CC3)ncnc12` [Example 87, 4-(cyclopropylamino)-N-(2-methyl-5-(4-((4-methyl-1,4-diazepan-1-yl)methyl)-3-(trifluoromethyl)benzoamido)phenyl)thieno[3,2-d]pyrimidine-7-carboxamide], for which the IC50 on Bcr-Abl^wt and against Bcr-Abl^T315I was 1 to 100 nM throughout.
On to `Cc1ccc(NC(=O)c2cc(N3CCCN(C)CC3)cc(C(F)(F)F)c2)cc1NC(=O)c1csc2c(NC3CC3)ncnc12` [Example 93, 4-(cyclopropylamino)-N-(2-methyl-5-(3-(4-methyl-1,4-diazepan-1-yl)-5-(trifluoromethyl)benzoamido)phenyl)thieno[3,2-d]pyrimidine-7-carboxamide], for which the IC50 on Bcr-Abl^wt and on Bcr-Abl^T315I was 1 to 100 nM throughout.
